Experimental data taken from US20130216666A1, “CASHEW NUT SHELL LIQUID WITH IMPROVED STABILITY” (IDEMITSU KOSAN CO., LTD., priority 2010, published 2013).

Assays:
[1] = Inhibition of decarboxylation reaction in unheated cashew nut shell liquid formulation (silica), citric acid; type: physicochemical; conditions: 80° C.; for Anacardic Acid 15:1 Composition (%) / Anacardic Acid 15:1 concentration / Anacardic Acid 15:2 Composition (%) / Anacardic Acid 15:2 concentration / Anacardic Acid 15:3 Composition (%) / Anacardic Acid 15:3 concentration / Cardanol 15:1 concentration / Cardanol 15:2 Composition (%) / Cardanol 15:2 concentration / Cardanol 15:3 Composition (%) / Cardanol 15:3 concentration / Cardanol 15:1 Composition (%): mixed with silica; for inhibition of the decarboxylation: formulation with silica, 6 days
Source text: 10 g of silica (Sipernat 22) was placed into each of beakers.

[2] = Inhibition of decarboxylation reaction when organic acid chelating agent was added (HPLC); type: physicochemical; conditions: 80° C.
[3] = Inhibition of decarboxylation reaction in feed; conditions: 10% by weight in unheated CNSL, 80° C.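 Further: ethyl acetate extract of test feed analysed by reversed-phase C18 HPLC with absorbance detection at 280 nm, giving component composition.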
Experimental: The analysis was carried out under the conditions of a solvent composition of acetonitrile: water: acetic acid =80:20:1 (based on volume), a flow rate of 2 ml/min, a temperature of 25° C., and an absorbance of 280 nm.
Samples were taken from the beakers after 3 days and analyzed for composition by HPLC.
For HPLC analysis, soluble fractions of the test feed was extracted with ethyl acetate and then filtered and dried to concentrate it to 5 mg/ml.

[4] = 2% by weight in unheated CNSL, Day 0
[5] = 2% by weight in unheated CNSL, Day 6
[6] = 10% by weight in unheated CNSL, Day 0
[7] = 10% by weight in unheated CNSL, Day 6
[8] = silica composition 1% by weight in feed, Day 0
[9] = silica composition 1% by weight in feed, Day 3

Structure (SMILES): O=C(O)CC(O)(CC(=O)O)C(=O)O [Citric Acid, citric acid]
- Anacardic Acid 15:1 Composition (%) [1, 4]: 39.36%
- Anacardic Acid 15:1 concentration [1, 4]: 161.67 ppm
- Anacardic Acid 15:2 Composition (%) [1, 4]: 14.07%
- Anacardic Acid 15:2 concentration [1, 4]: 57.80 ppm
- Anacardic Acid 15:3 Composition (%) [1, 4]: 32.64%
- Anacardic Acid 15:3 concentration [1, 4]: 134.06 ppm
- Cardanol 15:1 concentration [1, 4]: 23.41 ppm
- Cardanol 15:2 Composition (%) [1, 4]: 2.78%
- Cardanol 15:2 concentration [1, 4]: 11.43 ppm
- Cardanol 15:3 Composition (%) [1, 4]: 5.44%
- Cardanol 15:3 concentration [1, 4]: 22.36 ppm
- Anacardic Acid 15:1 Composition (%) [1, 5]: 32.92%
- Anacardic Acid 15:1 concentration [1, 5]: 121.26 ppm
- Anacardic Acid 15:2 Composition (%) [1, 5]: 11.63%
- Anacardic Acid 15:2 concentration [1, 5]: 42.84 ppm
- Anacardic Acid 15:3 Composition (%) [1, 5]: 26.37%
- Anacardic Acid 15:3 concentration [1, 5]: 97.14 ppm
- Cardanol 15:1 Composition (%) [1, 5]: 12.91%
- Cardanol 15:1 concentration [1, 5]: 47.56 ppm
- Cardanol 15:2 Composition (%) [1, 5]: 4.67%
- Cardanol 15:2 concentration [1, 5]: 17.19 ppm
- Cardanol 15:3 Composition (%) [1, 5]: 11.49%
- Cardanol 15:3 concentration [1, 5]: 42.34 ppm
- Anacardic Acid 15:1 Composition (%) [1, 6]: 39.73%
- Anacardic Acid 15:1 concentration [1, 6]: 151.81 ppm
- Anacardic Acid 15:2 Composition (%) [1, 6]: 14.05%
- Anacardic Acid 15:2 concentration [1, 6]: 53.68 ppm
- Anacardic Acid 15:3 Composition (%) [1, 6]: 32.47%
- Anacardic Acid 15:3 concentration [1, 6]: 124.09 ppm
- Cardanol 15:1 concentration [1, 6]: 21.54 ppm
- Cardanol 15:2 Composition (%) [1, 6]: 2.79%
- Cardanol 15:2 concentration [1, 6]: 10.67 ppm
- Cardanol 15:3 Composition (%) [1, 6]: 5.32%
- Cardanol 15:3 concentration [1, 6]: 20.34 ppm
- Anacardic Acid 15:1 Composition (%) [1, 7]: 38.12%
- Anacardic Acid 15:1 concentration [1, 7]: 136.67 ppm
- Anacardic Acid 15:2 Composition (%) [1, 7]: 14.58%
- Anacardic Acid 15:2 concentration [1, 7]: 52.15 ppm
- Anacardic Acid 15:3 Composition (%) [1, 7]: 30.40%
- Anacardic Acid 15:3 concentration [1, 7]: 108.99 ppm
- Cardanol 15:1 Composition (%) [1, 7]: 7.19%
- Cardanol 15:1 concentration [1, 7]: 25.79 ppm
- Cardanol 15:2 Composition (%) [1, 7]: 3.19%
- Cardanol 15:2 concentration [1, 7]: 11.43 ppm
- Cardanol 15:3 Composition (%) [1, 7]: 6.55%
- Cardanol 15:3 concentration [1, 7]: 23.49 ppm
- inhibition of the decarboxylation ([1]; 2% by weight): moderate inhibition
- inhibition of the decarboxylation ([1]; 10% by weight): significant inhibition
- Anacardic Acid 15:1 Composition (%) [2, 4]: 39.78%
- Anacardic Acid 15:1 concentration [2, 4]: 332.79 ppm
- Anacardic Acid 15:2 Composition (%) [2, 4]: 14.23%
- Anacardic Acid 15:2 concentration [2, 4]: 119.04 ppm
- Anacardic Acid 15:3 Composition (%) [2, 4]: 33.01%
- Anacardic Acid 15:3 concentration [2, 4]: 276.11 ppm
- Cardanol 15:1 concentration [2, 4]: 45.23 ppm
- Cardanol 15:2 Composition (%) [2, 4]: 2.32%
- Cardanol 15:2 concentration [2, 4]: 19.40 ppm
- Cardanol 15:3 Composition (%) [2, 4]: 5.25%
- Cardanol 15:3 concentration [2, 4]: 43.93 ppm
- Anacardic Acid 15:1 Composition (%) [2, 5]: 32.78%
- Anacardic Acid 15:1 concentration [2, 5]: 281.46 ppm
- Anacardic Acid 15:2 Composition (%) [2, 5]: 11.39%
- Anacardic Acid 15:2 concentration [2, 5]: 97.81 ppm
- Anacardic Acid 15:3 Composition (%) [2, 5]: 26.31%
- Anacardic Acid 15:3 concentration [2, 5]: 225.94 ppm
- Cardanol 15:1 concentration [2, 5]: 111.23 ppm
- Cardanol 15:2 Composition (%) [2, 5]: 4.84%
- Cardanol 15:2 concentration [2, 5]: 41.54 ppm
- Cardanol 15:3 Composition (%) [2, 5]: 11.72%
- Cardanol 15:3 concentration [2, 5]: 100.64 ppm
- Anacardic Acid 15:1 Composition (%) [2, 6]: 39.28%
- Anacardic Acid 15:1 concentration [2, 6]: 248.49 ppm
- Anacardic Acid 15:2 Composition (%) [2, 6]: 14.38%
- Anacardic Acid 15:2 concentration [2, 6]: 90.98 ppm
- Anacardic Acid 15:3 Composition (%) [2, 6]: 33.19%
- Anacardic Acid 15:3 concentration [2, 6]: 209.99 ppm
- Cardanol 15:1 concentration [2, 6]: 34.38 ppm
- Cardanol 15:2 Composition (%) [2, 6]: 2.45%
- Cardanol 15:2 concentration [2, 6]: 15.47 ppm
- Cardanol 15:3 Composition (%) [2, 6]: 5.27%
- Cardanol 15:3 concentration [2, 6]: 33.37 ppm
- Anacardic Acid 15:1 Composition (%) [2, 7]: 38.07%
- Anacardic Acid 15:1 concentration [2, 7]: 273.99 ppm
- Anacardic Acid 15:2 Composition (%) [2, 7]: 13.78%
- Anacardic Acid 15:2 concentration [2, 7]: 99.14 ppm
- Anacardic Acid 15:3 Composition (%) [2, 7]: 31.48%
- Anacardic Acid 15:3 concentration [2, 7]: 226.51 ppm
- Cardanol 15:1 concentration [2, 7]: 49.53 ppm
- Cardanol 15:2 Composition (%) [2, 7]: 3.30%
- Cardanol 15:2 concentration [2, 7]: 23.72 ppm
- Cardanol 15:3 Composition (%) [2, 7]: 6.49%
- Cardanol 15:3 concentration [2, 7]: 46.72 ppm
- stability of the shell liquid in the feed (progress of the decarboxylation) ([3]; in feed, 3 days): stable in the feed without progress of the decarboxylation
- Anacardic Acid 15:1 Composition (%) [3, 8]: 40.28%
- Anacardic Acid 15:1 concentration [3, 8]: 363.92 ppm
- Anacardic Acid 15:2 Composition (%) [3, 8]: 13.76%
- Anacardic Acid 15:2 concentration [3, 8]: 124.28 ppm
- Anacardic Acid 15:3 Composition (%) [3, 8]: 33.11%
- Anacardic Acid 15:3 concentration [3, 8]: 299.13 ppm
- Cardanol 15:1 concentration [3, 8]: 48.69 ppm
- Cardanol 15:2 Composition (%) [3, 8]: 2.31%
- Cardanol 15:2 concentration [3, 8]: 20.83 ppm
- Cardanol 15:3 Composition (%) [3, 8]: 5.15%
- Cardanol 15:3 concentration [3, 8]: 46.52 ppm
- Anacardic Acid 15:1 Composition (%) [3, 9]: 38.54%
- Anacardic Acid 15:1 concentration [3, 9]: 309.33 ppm
- Anacardic Acid 15:2 Composition (%) [3, 9]: 13.16%
- Anacardic Acid 15:2 concentration [3, 9]: 105.64 ppm
- Anacardic Acid 15:3 Composition (%) [3, 9]: 31.68%
- Anacardic Acid 15:3 concentration [3, 9]: 254.26 ppm
- Cardanol 15:1 Composition (%) [3, 9]: 6.98%
- Cardanol 15:1 concentration [3, 9]: 56.00 ppm
- Cardanol 15:2 Composition (%) [3, 9]: 2.98%
- Cardanol 15:2 concentration [3, 9]: 23.95 ppm
- Cardanol 15:3 Composition (%) [3, 9]: 6.67%
- Cardanol 15:3 concentration [3, 9]: 53.50 ppm
